Legend:
[1] = RAD B251 clinical trial: LDL cholesterol levels by IL-1β genotype and treatment group; type: in vivo, human; details: last visit
Source text: (§1) The RAD B251 study was a randomized, multicenter, double-blind, parallel group study of the efficacy and safety of everolimus (Certican™) (RAD) versus mycophenolate mofetil (MMF) used in combination with cyclosporine (CsA) (NEORAL®) and prednisone. The study consisted of three periods: a Screening period, a Baseline period and a Double-Blind Treatment period. Following the Baseline assessments, patients who meet the inclusion/exclusion criteria were randomized into one of the three treatment groups (1:1:1) once it has been ascertained that the allograft is functional and that oral medication can be tolerated (within 48 hours post-transplantation). Determination of allograft function was by the investigator's judgement and was based upon adequate urine output and evidence of falling creatinine levels. The day of randomization and administration of the first dose of study medication was recorded as Day 1 of the study. The three treatment groups are described below: • Dose Level 1: 0.75 mg RAD bid+NEORAL®+prednisone • Dose Level 2: 1.5 mg RAD bid+NEORAL®+prednisone • Comparator 1 g MMF bid+NEORAL®+prednisone Concomitant Therapy Initiation and Maintenance of NEORAL®
(§2) A treatment period of three years followed transplantation. […] Renal biopsies were required at Baseline (may be intra-operative) and at the time of any suspected rejection. Blinded study drug administration ceased at 3 years.
(§3) Male and female patients, 16-65 years of age who are scheduled to undergo primary cadaveric, living unrelated or non-HLA identical related donor kidney transplantation, were allowed to enter the study. Patients who discontinued the study prematurely were not replaced. Each patient had to meet all of the inclusion/exclusion criteria to be eligible for entry into the study.
(§4) A total of 82 unique samples from the RAD B251 clinical trial were genotyped upon their consent to participate in the pharmacogenetic evaluation. This represents about 15% of the total population that participated in the RAD B251 clinical trial. Blood samples from each patient were collected at the individual trial sites and then shipped to Covance (Geneva, Switzerland). The genomic DNA of each patient was extracted from the blood by Covance using the PUREGENE™ DNA Isolation Kit (D-50K) (Gentra, Minneapolis, Minn.).
(§5) An analysis of covariance model was used for the analysis of the effect of genotype and treatment on cholesterol levels using the 24-month lab_b.sd2 RADB 251 clinical data set. Terms in the model include the final cholesterol level, the initial cholesterol level as the covariant, and the genotype and treatment as the main effectors. The odds ratios, 95% confidence limits, and Chi-square analysis were calculated where applicable. All statistical analyses were performed using the SAS 8.02 software. To correct for multiple testing, the Bonferroni correction method was performed.

[2] = RAD B251 clinical trial: HDL cholesterol levels by IL-1β genotype and treatment group; type: in vivo, human; details: last visit
Source text: as §1, with “The three treatment groups are described below: • Dose Level 1: 0.75 mg RAD bid+NEORAL®+prednisone • Dose Level 2: 1.5 mg RAD bid+NEORAL®+prednisone • Comparator 1 g MMF bid+NEORAL®+prednisone Concomitant Therapy Initiation and Maintenance of NEORAL®” left out
as §2, §3, §4, §5

[3] = RAD B251 clinical trial: total cholesterol levels by IL-1β genotype and treatment group; type: in vivo, human; details: for LS Mean Total Cholesterol Levels: RAD (1.5 and 3.0 mg/day), last visit; for odds ratio for increase in total blood cholesterol levels to a final concentration ≧240 mg/dL: RAD/NEORAL® regimen
Source text: The RAD B251 study was a randomized, multicenter, double-blind, parallel group study of the efficacy and safety of everolimus (Certican™) (RAD) versus mycophenolate mofetil (MMF) used in combination with cyclosporine (CsA) (NEORAL®) and prednisone. The study consisted of three periods: a Screening period, a Baseline period and a Double-Blind Treatment period. […] Determination of allograft function was by the investigator's judgement and was based upon adequate urine output and evidence of falling creatinine levels. The day of randomization and administration of the first dose of study medication was recorded as Day 1 of the study. […]
as §2, §3
(The values on the figures, etc. refer to the absolute serum cholesterol levels at the last visit, however during the statistical analysis this value was defined as the dependent variable and the cholesterol level at baseline as the independent variable thus automatically taking into consideration the baseline level).
as §4, with “Switzerland).” for “Switzerland). The genomic DNA of each patient was extracted from the blood by Covance using the PUREGENE™ DNA Isolation Kit (D-50K) (Gentra, Minneapolis, Minn.).”
as §5, with “performed. […]” for “performed.”

cholesterol biosynthesis = details: See El-Omar et al.; cited from earlier work
[4] = (−31) IL-1β CC genotype, MMF (2 mg/day)
[5] = (−31) IL-1β CT genotype, MMF (2 mg/day)
[6] = (−31) IL-1β TT genotype, MMF (2 mg/day)
[7] = (−511) IL-1β CC genotype, MMF (2 mg/day)
[8] = (−511) IL-1β CT genotype, MMF (2 mg/day)
[9] = (−511) IL-1β TT genotype, MMF (2 mg/day)
[10] = (−31) IL-1β CC genotype, RAD (1.5 and 3.0 mg/day)
[11] = (−31) IL-1β CT genotype, RAD (1.5 and 3.0 mg/day)
[12] = (−31) IL-1β TT genotype, RAD (1.5 and 3.0 mg/day)
[13] = (−511) IL-1β CC genotype, RAD (1.5 and 3.0 mg/day)
[14] = (−511) IL-1β CT genotype, RAD (1.5 and 3.0 mg/day)
[15] = (−511) IL-1β TT genotype, RAD (1.5 and 3.0 mg/day)

COc1c(C)c2c(c(O)c1C/C=C(\C)CCC(=O)OCCN1CCOCC1)C(=O)OC2 [MMF, mycophenolate mofetil]
LS Mean LDL Levels [1, 4]: 143.1 mg/dL | LS Mean LDL Levels [1, 5]: 119.8 mg/dL | LS Mean LDL Levels [1, 6]: 107.8 mg/dL | LS Mean LDL Levels [1, 7]: 113.9 mg/dL | LS Mean LDL Levels [1, 8]: 118.6 mg/dL | LS Mean LDL Levels [1, 9]: 143.7 mg/dL | LS Mean HDL levels [2, 4]: 50.4 mg/dL | LS Mean HDL levels [2, 5]: 56.8 mg/dL | LS Mean HDL levels [2, 6]: 45.5 mg/dL | LS Mean HDL levels [2, 7]: 45.5 mg/dL | LS Mean HDL levels [2, 8]: 56.8 mg/dL | LS Mean HDL levels [2, 9]: 50.4 mg/dL

CO[C@H]1C[C@@H]2CC[C@@H](C)[C@@](O)(O2)C(=O)C(=O)N2CCCC[C@H]2C(=O)O[C@H]([C@H](C)C[C@@H]2CC[C@@H](OCCO)[C@H](OC)C2)CC(=O)[C@H](C)/C=C(\C)[C@@H](O)[C@@H](OC)C(=O)[C@H](C)C[C@H](C)/C=C/C=C/C=C/1C [RAD, everolimus]
LS Mean Total Cholesterol Levels ([3]; (−31) IL-1β CC genotype): 291.1 mg/dL | LS Mean Total Cholesterol Levels ([3]; (−31) IL-1β CT genotype): 240.4 mg/dL | LS Mean Total Cholesterol Levels ([3]; (−31) IL-1β TT genotype): 216.6 mg/dL | LS Mean Total Cholesterol Levels ([3]; (−511) IL-1β CC genotype): 217.3 mg/dL | LS Mean Total Cholesterol Levels ([3]; (−511) IL-1β CT genotype): 242.9 mg/dL | LS Mean Total Cholesterol Levels ([3]; (−511) IL-1β TT genotype): 290.3 mg/dL | odds ratio for increase in total blood cholesterol levels to a final concentration ≧240 mg/dL ([3]; patients with a C at position (-31) in the IL-1β gene promoter (CC-CT vs TT)): 7.23 | odds ratio for increase in total blood cholesterol levels to a final concentration ≧240 mg/dL ([3]; patients with a T at position (-511) in the IL-1β gene promoter (CT-TT vs CC)): 5.67 | LS Mean LDL Levels [1, 10]: 145.1 mg/dL | LS Mean LDL Levels [1, 11]: 124.1 mg/dL | LS Mean LDL Levels [1, 12]: 112.2 mg/dL | LS Mean LDL Levels [1, 13]: 112.5 mg/dL | LS Mean LDL Levels [1, 14]: 123.6 mg/dL | LS Mean LDL Levels [1, 15]: 144.5 mg/dL | LS Mean HDL levels [2, 10]: 65.1 mg/dL | LS Mean HDL levels [2, 11]: 55 mg/dL | LS Mean HDL levels [2, 12]: 48.4 mg/dL | LS Mean HDL levels [2, 13]: 47.6 mg/dL | LS Mean HDL levels [2, 14]: 54.9 mg/dL | LS Mean HDL levels [2, 15]: 68.4 mg/dL

IL-1β: interleukin-1-beta, cytokine reported to inhibit cholesterol biosynthesis
inhibition of cholesterol biosynthesis (cholesterol biosynthesis): 25%

From patent US7732134B2, “Methods to predict cholesterol elevation during immunosuppressant therapy” (Novartis AG, priority 2002, dated 2010)
